Data set [1] has as its system patients with relapsing multiple sclerosis (RMS). As to the kind of experiment: OPTIMUM phase 3 study (NCT02425644): systemic corticosteroid (SCS) use for treatment of relapse, ponesimod 20 mg vs teriflunomide 14 mg. The note with it: for proportion of patients who received ≥1 SCS therapy for treatment of relapse / least squares mean of accumulated steroid dose (prednisone equivalent doses) for treatment of relapse: full analysis set; for proportion of patients who received ≥1 SCS therapy for treatment of relapse: between study treatment start and EOS, PON 20 mg vs TER 14 mg, P<0.0001. It counts as in vivo, human. On the procedure:
Subjects were evaluated according to the treatment they were randomized to. • Primary efficacy variable/primary timepoint: The primary endpoint was annualized relapse rate (ARR) up to the end of study (EOS) defined as the number of confirmed relapses per subject-year. All available data up to EOS, regardless of treatment discontinuation was included (ITT approach). Co-Administration of Ponesimod with Corticosteroids
OPTIMUM was a phase 3, double-blind, randomized clinical trial that evaluated the efficacy, safety, and tolerability of PON (20 mg) versus TER (14 mg) in patients with RMS.
Patients with RMS aged 18 to 55 years with a relapsing course (i.e., RMS or secondary progressive MS with superimposed relapses), an Expanded Disability Status Scale (EDSS) score of 0-5.5, and recent clinical or magnetic resonance imaging activity were enrolled.
Patients were excluded from the primary analysis if they received treatment with SCS, unless it was for a multiple sclerosis (MS) relapse or short-term treatment of pulmonary conditions.
In this analysis, the proportions of patients in each treatment group who received concomitant treatment with ≥1 SCS to treat MS relapse between the start of study treatment and end of study (EOS) were compared. In addition, the mean accumulated steroid dose (prednisone equivalent doses in mg) administered to treat relapse between start of study treatment and EOS and between end of treatment (EOT) plus follow-up time was assessed.
Data are shown for analyses of the full analysis set and analyses stratified by baseline EDSS score (baseline EDSS score≤3.5 versus >3.5), prior MS treatment (disease modifying treatment [DMT] within the past 2 years versus no DMT within the past 2 years), or sex (male versus female).
The proportion of patients who received ≥1 SCS therapy for treatment of relapse is provided by treatment group; group differences were examined using Cochran-Mantel Haenszel (CMH) test and stratified by baseline EDSS and prior treatment with DMT.
The between-group difference for the mean accumulated steroid dose for treatment of relapse was evaluated using analysis of covariance models with accumulated steroid dose as the dependent variable, treatment as factor, and EDSS baseline group, and prior treatment with disease-modifying therapy within 2 years prior to randomization as covariates. EDSS baseline group was removed from the model for analyses stratified by baseline EDSS score.

The subject of data set [2] is peripheral blood lymphocyte count. The note with it: cited from earlier work.
For data set [3] the following is noted: in vivo; cited from earlier work.
The mark [4] stands for this setting: from start of study treatment to EOS, P=0.0005.
[5] abbreviates: from start of study treatment to EOT+7 days of follow up, P=0.0007.

Molecules are shown by their SMILES.

We go through 2 molecules from patent US20250332147A1, “Methods of Treating Multiple Sclerosis” (Vanda Pharmaceuticals Inc., priority 2021, published 2025).

In the case of `CCC/N=C1\S/C(=C\c2ccc(OC[C@H](O)CO)c(Cl)c2)C(=O)N1c1ccccc1C` [PON, (R)-5-[3-chloro-4-(2,3-dihydroxy-propoxy)-benz[Z]ylidene]-2-([Z]-propylimino)-3-o-tolyl-thiazolidin-4-one], in data set [1] (PON 20 mg vs teriflunomide (TER) 14 mg, patients with RMS), the “reduction of annualized relapse rate (ARR)” value is listed as “superior efficacy”. In addition, the “proportion of patients who received ≥1 SCS therapy for treatment of relapse” value in data set [1] was 29.1%. The “least squares mean of accumulated steroid dose (prednisone equivalent doses) for treatment of relapse” value in data set [1] (setting [4]) is on record as 3207.1 mg; in data set [1] (setting [5]), 2977.1 mg. Moreover, the “proportion of patients who received ≥1 SCS therapy, stratified by baseline disability” value in data set [1] (only among patients with baseline EDSS≤3.5, compared with teriflunomide group) is reported as “significantly smaller proportion”. Also, the “peripheral blood lymphocyte count” value in data set [2] (blocking the egress of lymphocytes from lymphoid organs) is “rapid, dose-dependent, and reversible reduction”. Also, the “monocyte, natural killer (NK) cell and neutrophil counts” value in data set [2] (in vivo) is “not reduced”.
Consider `C/C(O)=C(\C#N)C(=O)Nc1ccc(C(F)(F)F)cc1` [TER], for which the “proportion of patients who received ≥1 SCS therapy for treatment of relapse” value in data set [1] was found to be 40.10%. Also, the “least squares mean of accumulated steroid dose (prednisone equivalent doses) for treatment of relapse” value in data set [1] (setting [4]) is given as 4257.2 mg; in data set [1] (setting [5]) it was 3957.4 mg. In addition, the elimination from plasma result in data set [3] is given as “eliminated slowly”.
